“Also recorded” adds a separate entry of the source. Values belong to the compound of their own block, whether it stands above or below them.
What was measured:
[1] = test system: mouse MB49 bladder cancer cells; assay: Surface exposure of calreticulin (CRT), immunofluorescence cytometry; format: cell-based; settings: 4 h
[2] = test system: tumor-reactive CD8^+ T cells; assay: Flow cytometry of IFN-γ expression in CD8^+ T cells from tumor and draining lymph node, stimulation with MB49 cell lysates; format: in vivo, C57BL/6 mice
Source text: (§1) (FIG. 55A) In vivo depletion of tumor-infiltrating CD4^+CD25^+FoxP3^+ T cells by treatment of tumor-bearing mice with anti-CD4 antibody. C57BL/6 mice injected with 5×10^5 MB49 tumor cells s.c. were left untreated (control) or administered an anti-CD4 antibody (Clone GK1.5) i.p. at 5 d and 9 d following tumor challenge. CD4^+CD25^+FoxP3^+ T cells infiltrating tumors isolated from mice at d16 following tumor challenge were detected by flow cytometry. […] Flow cytometric analyses of peripheral blood mononuclear cells isolated from mice at d16 following tumor challenge determined the percentage of CD4^+ T cells or CD8^+ T cells among total mononuclear cells, and the percentage of CD4^+CD25^+FoxP3^+ T cells among total CD4^+ T cells. […] Tumor-reactive immune responses were determined by flow cytometric analyses of IFN-γ expression in CD8^+ T cells from the tumor and draining lymph node in response to in vitro stimulation with MB49 cell lysates. […] Tumor volume was monitored to determine the effect of depleting either CD4^+ T cells or CD8^+ T cells on the in vivo antitumor efficacy of doxorubicin. […]

[3] = test system: MB49 tumors; assay: MB49 tumor volume, chemotherapy with or without anti-CD4 or anti-CD8 antibody; format: in vivo, C57BL/6 mice
Source text: as §1

[4] = test system: human SW780 bladder cancer cells; assay: Surface exposure of calreticulin (CRT), immunofluorescence cytometry; format: cell-based; settings: doxorubicin 10 μM, 4 h
[5] = test system: MB49 tumor cells; assay: Priming of tumor-reactive immune responses: IFN-γ production by draining lymph node (DLN) cells on in vitro re-challenge; format: in vivo, C57BL/6 mice; settings: intratumoral doxorubicin 10 μg at d10 following tumor inoculation, established tumors
[6] = test system: MB49 tumors; assay: Intratumoral doxorubicin in mice with pre-established MB49 tumors, tumor growth; format: in vivo, C57BL/6 mice
[7] = test system: mouse NKG2D ligands (Rae-1); assay: Quantitative real-time PCR of Rae1 transcripts in CT26 cells; format: cell-based; settings: irinotecan 25 μg/ml or oxaliplatin 10 μg/ml
[8] = test system: human NKG2D ligands (MICA/MICB); assay: Flow cytometry of cell surface MICA/B on HCT116 cells; format: cell-based; settings: irinotecan 25 μg/ml, 16 h
[9] = test system: CT26 tumors; assay: CT26 tumor volume, irinotecan with or without NKG2D blocking, anti-CD4 and/or anti-CD8 antibody; format: in vivo, Balb/C mice; settings: irinotecan alone

SMILES: N.N.[Cl][Pt][Cl] [cisplatin]
CRT exposure compared to doxorubicin ([1]; equitoxic doses): less effective in increasing CRT exposure
IFN-γ expression in CD8^+ T cells ([2]; cisplatin alone, 0.5 mg/kg i.p. weekly×4 from d7): unable to induce a corresponding elevation of IFN-γ expression
growth of MB49 tumors ([3]; cisplatin alone, 0.5 mg/kg i.p. weekly×4): partially inhibited tumor growth but failed to arrest tumor progression

SMILES: COc1cccc2c1C(=O)c1c(O)c3c(c(O)c1C2=O)C[C@@](O)(C(=O)CO)C[C@@H]3O[C@H]1C[C@H](N)[C@H](O)[C@H](C)O1 [doxorubicin]
surface exposure of CRT ([1]; doxorubicin 10 μM): induced rapid surface exposure of CRT; also recorded: efficient translocation of CRT to the cell surface
surface exposure of CRT [4]: induced rapid surface exposure of CRT
IFN-γ secretion by DLN cells on re-challenge with MB49 cell lysates [5]: failed to induce a corresponding increase in IFN-γ secretion
tumor growth ([6]; intratumoral doxorubicin 10 μg on d3 following tumor inoculation): able to arrest tumor growth
tumor growth ([6]; intratumoral doxorubicin 10 μg on d10 following tumor inoculation): failed to inhibit the progressive growth
IFN-γ^+CD8^+ T cells ([2]; doxorubicin alone, 5 mg/kg i.p. weekly×3 from d7, 5 mg/kg): IFN-γ^+CD8^+ T cells became evident; also recorded: tumor-reactive IFN-γ^+CD8^+ T cells were evident
growth of MB49 tumors ([3]; doxorubicin alone, 5 mg/kg i.p. weekly×3): inhibited the growth of MB49 tumors but failed to arrest tumor progression

cell surface expression of MICA, MICB ([8]; HCT116 cells): upregulated
p53 dependence of upregulation of MICA/B ([8]; isogenic p53^+/+ and p53^−/− HCT116 cells): p53 is not required
SMILES: CCc1c2c(nc3ccc(OC(=O)N4CCC(N5CCCCC5)CC4)cc13)-c1cc3c(c(=O)n1C2)COC(=O)[C@]3(O)CC [irinotecan]
time after which Rae1 mRNA began to decline [7]: 48 h
growth of CT26 tumors ([9]; 50 mg/kg i.p. weekly×3 from d5): inhibited the growth of CT26 tumors
growth of CT26 tumors ([9]; 50 mg/kg i.p. weekly×3 from d7): only slowed tumor growth

SMILES: O=C1[O][Pt]2([NH][C@@H]3CCCC[C@H]3[NH]2)[O]C1=O [oxaliplatin]
time after which Rae1 mRNA began to decline [7]: 48 h

From patent publication US12295968B2, “Compositions and methods for targeted immunomodulatory antibodies and fusion proteins” (The Johns Hopkins University, priority 2010, dated 2025)
